Assay results: patent publication US20070207144A1, “Ubiquitin/proteasome inhibitors for the treatment of spinal muscular atrophy” (priority 2006, published 2007)

Key:
[1] = tested on: fibroblasts isolated from an SMA patient; test: SMN protein and gem formation in SMA patient fibroblasts; assay type: cell-based, human; conditions: compared with the control DMSO
From the text: The invention is further related to the appreciation that the assays described herein can be efficiently used as the primary assay for selecting a candidate for the treatment of SMA. Thus, the invention relates to a method for selecting a candidate for the treatment of SM-A comprising (a) contacting the candidate with a fibroblast cell culture derived from an SMA patient under conditions and for a period of time sufficient for SMN protein expression and gem formation; (b) determining the formation of gems of SMN protein; and (c) selecting the candidate. The formation of gems can be determined by establishing the percentage of fibroblasts with gems in the cell culture. In other embodiments, the number of gems or concentration of gems in the culture can be determined.
Cell lines are derived from SMA patients. Such cells are termed “SMA cells” herein. The cells are isolated from a variety of sources and tissues. For example, the cells can be isolated from a blood sample or from a biopsy. The cell can be a stem cell, a fibroblast, a neuronal cell or a lymphoid cell. The cells can be propagated in culture according to cell type and origin of the cells. The requisite growth factors can be provided in the media. For example, the media can be supplemented with fetal calf serum, a cocktail of purified factors, or an individual growth factor. The cells can be propagated without being immortalized. Alternatively, the cells can immortalized using a virus or a plasmid bearing an oncogene, or a transforming viral protein, e.g., papilloma E6 or E7 protein. The source of the fibroblasts for cell culture can be isolated from a patient with SMA or derived from such an isolation. In one embodiment, the cells are a clonal cell culture derived from an SMA patient.
Procedures for isolating and maintaining cells lines are well known in the art and can be found in suitable laboratory manuals. The cells can be grown in sufficient amount to screen an array of test compounds. Alternatively, cells can be used to assess the effectiveness of individual compounds as SMA treatments. […]

several cell types = conditions: Fenteany et al., PNAS 1994; cited from earlier work
proteasome = conditions: Fenteany et al., Science 1995; cited from earlier work

Q: With CC(C)[C@H](O)[C@@]12NC(=O)[C@H](CCCl)[C@]1(C)OC2=O [Antiprotealide, antiprotealide] as the compound, how does the “SMN & Gems in patient fibroblasts (pictures)” value (shortened to “SMN & Gems”) [1] read?
A: induced

Q: For CC(=O)N[C@@H](CSC(=O)[C@]1([C@@H](O)C(C)C)NC(=O)[C@H](C)[C@@H]1O)C(=O)O [Lactacystin, lactacystin], which “proliferation of several cell types” value (several cell types) is on record?
A: capable of inhibiting

Q: What about the “SMN & Gems” value [1] of the same compound?
A: induced

Q: And the “proteolytic activity of the proteasome complex” value (proteasome)?
A: specifically inhibits

Q: With CC(C)C[C@H](NC(=O)[C@H](Cc1ccccc1)NC(=O)c1cnccn1)B(O)O [Velcade, bortezomib] as the compound, how does the “SMN & Gems” value [1] read?
A: induced
